# Publication PMC4558515, “Exploring the role of MKK7 in excitotoxicity and cerebral ischemia: a novel pharmacological strategy against brain injury” (Cell Death & Disease, 2015)
# Residues, ends and D or L forms follow the SMILES beside them. No end group written: not given here.
# T1: human recombinant full-length MKK7 (Homo sapiens, UniProt O14733)
# T1 construct: human recombinant full-length MKK7 (residues M1-R419, as in NCBI/Protein entry NP_660186.1); purchased ProQinase GmbH, Freiburg, Germany
# T1 sequence (O14733 1-419): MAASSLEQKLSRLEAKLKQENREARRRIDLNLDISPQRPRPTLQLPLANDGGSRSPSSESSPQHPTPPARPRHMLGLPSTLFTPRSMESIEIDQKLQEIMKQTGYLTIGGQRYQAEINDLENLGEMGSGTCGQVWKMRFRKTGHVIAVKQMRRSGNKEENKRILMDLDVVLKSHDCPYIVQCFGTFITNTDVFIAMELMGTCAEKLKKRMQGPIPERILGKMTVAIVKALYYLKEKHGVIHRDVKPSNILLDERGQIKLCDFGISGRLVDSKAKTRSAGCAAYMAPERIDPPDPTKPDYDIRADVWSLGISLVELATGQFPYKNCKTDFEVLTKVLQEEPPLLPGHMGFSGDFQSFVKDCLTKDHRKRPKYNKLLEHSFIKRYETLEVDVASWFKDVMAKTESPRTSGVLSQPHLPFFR
# T2: human recombinant full-length MKK7 (mitogen-activated protein kinase kinase 7) (human, UniProt O14733-1 1-419)
# T2 construct: the vendor's protein may carry one (surmise); also called recombinant MKK7; source: bought: ProQinase GmbH
# T2 sequence (looked up): T1 sequence (O14733 1-419)
# B1: GADD45β_(69–86) peptide (peptide)
# peptide: IALQIHFTLIQSFCCDND
# modifications: not fully specified (C-terminus); cysteine pairing not given here
# notes: growth arrest and DNA damage-inducible 45β (GADD45β), residues 69-86 (the α-helix)
# B2: GADD45β: growth arrest and DNA damage-inducible 45β protein, binds MKK7 (protein, UniProt O75293 1-160, looked up)
# Growth arrest and DNA …: MTLEELVACDNAAQKMQTVTAAVEELLVAAQRQDRLTVGVYESAKLMNVDPDSVVLCLLAIDEEEEDDIALQIHFTLIQSFCCDNDINIVRVSGMQRLAQLLGEPAETQGTTEARDLHCLLVTNPHTDAWKSHGLVEVASYCEESRGNNQWVPYISLQER
# Key:
# [1] = target: T1, human recombinant full-length MKK7; test: SPR binding of GADD45β69–86 to immobilized recombinant MKK7 (ProteOn XPR36); settings: heterogenous ligand model
# Experimental: Figure 2 GADD45β69–86 interacts with recombinant MKK7. Starting at time 0, the indicated concentrations of GADD45β69–86 were injected for 150 s over SPR sensor surfaces on which 5000 RUs of human recombinant MKK7 had been previously captured by amine coupling. The SPR chip was then washed with buffer alone to monitor ligand dissociation. Fitted sensorgrams show GADD45β69–86 binding to recombinant MKK7 in RUs. The data were obtained by subtracting the reference channels, containing bovine serum albumin or no polypeptides.
# Binding studies were performed on a ProteOn XPR36 Protein Interaction Array system (Bio-Rad Laboratories, Hercules, CA, USA). Detection of GADD45β69–86 interaction with MKK7 was performed by immobilizing ~5000 resonance units (RUs) of human recombinant full-length MKK7 (residues M1-R419, as in NCBI/Protein entry NP_660186.1; ProQinase GmbH, Freiburg, Germany) on the surface of a sensor chip (GL-C chip, Bio-Rad) by amine-coupling chemistry. GADD45β69–86 molecules were then perfused over the chip for 150 s to allow association, followed by 500 s buffer (PBST) wash to monitor dissociation. Signals were normalized to control channels containing ~5000 RUs of bovine serum albumin or no proteins. […]
# [2] = system: MKK7 (P-MKK7/MKK7) in cortical neurons; test: Western blot P-MKK7/MKK7 ratio in cortical neurons; settings: 100 μM NMDA, versus CTR, n=6
# [3] = system: cortical neurons (12 h OGD); test: LDH assay, protection against oxygen–glucose deprivation (OGD); assay type: cell-based, rat; settings: 5 μM, 30 min pre-treatment, n=6, P<0.01
# Experimental: OGD was performed on cortical neurons maintained in an Hypoxia Incubator Chamber (StemCell Technologies, Vancouver, BC, Canada) for 12 h; during the first 4 min, oxygen in the chamber was replaced by a mixture of 95% N2 5% CO2; glucose deprivation was realized by substituting culture medium with glucose-free Neurobasal Medium (Life Technologies).
# (§1) Neuroprotection was evaluated by an LDH assay.
# 12 DIV cortical neurons = test: LDH assay, intrinsic toxicity of peptides on cortical neurons; assay type: cell-based, rat; settings: 24 h treatment, 1, 2.5, 5 and 10 μM; one-way ANOVA, P>0.05, n=8
# Experimental: as §1
# [4] = system: MKK7 (P-MKK7/MKK7) in ipsilateral brain of MCAo rats; test: Western blot P-MKK7/MKK7 ratio in ischemic brain tissue; assay type: in vivo, Sprague–Dawley rats; settings: 11 mg/kg 30 min before MCAO, n=3, P<0.05
# Experimental: Actin was used as loading control. […] Actin was used as loading control. […] Actin was used as loading control. […] Actin was used as loading control.
# Part I. Ischemia reperfusion (n=43). […] After 90 min, the clip was removed. […] Animals were initially killed 24 h post lesion.
# [5] = system: middle cerebral artery occlusion (MCAo) in rats; test: MCAo model (electrocoagulation), infarct volume by TTC staining; assay type: in vivo, Sprague–Dawley rats
# [6] = target: T2, human recombinant full-length MKK7 …; test: SPR; ProteOn XPR36, GL-C chip; ~5000 RU of human recombinant full-length MKK7 immobilised by amine coupling; GADD45β_(69–86) perfused 150 s, then 500 s buffer (PBST) wash; referenced to channels with ~5000 RU bovine serum albumin or no protein; heterogenous ligand binding model; settings: both partners purified
# MKK4 = settings: cited from earlier work
# Source text: (§2) We took advantage of the growth arrest and DNA damage-inducible 45β (GADD45β) ability to bind MKK7.[9], [14], [15] GADD45β is involved in the control of cell stress responses in cell cycle, DNA repair and oncogenesis.[9], [16] […] More importantly, GADD45β inhibition is MKK7-specific and has no effect on MKK4, MKK3/6 and MEK1/2 activity.[9] The minimal essential domain of interaction between MKK7 and GADD45β has already been defined (GADD45β60–86 and 69–86 sequences).[15] We here used ...
# MKK7 = settings: cited from earlier work
# Source text: as §2
# MKK3/6 = settings: cited from earlier work
# Source text: as §2
# MEK1/2 = settings: cited from earlier work
# Source text: as §2
molecule,measurement,setting,value
CC[C@H](C)[C@H](N)C(=O)N[C@@H](C)C(=O)N[C@@H](CC(C)C)C(=O)N[C@@H](CCC(N)=O)C(=O)N[C@H](C(=O)N[C@@H](Cc1c[nH]cn1)C(=O)N[C@@H](Cc1ccccc1)C(=O)N[C@H](C(=O)N[C@@H](CC(C)C)C(=O)N[C@H](C(=O)N[C@@H](CCC(N)=O)C(=O)N[C@@H](CO)C(=O)N[C@@H](Cc1ccccc1)C(=O)N[C@@H](CS)C(=O)N[C@@H](CS)C(=O)N[C@@H](CC(=O)O)C(=O)N[C@@H](CC(N)=O)C(=O)N[C@@H](CC(=O)O)C(N)=O)[C@@H](C)CC)[C@@H](C)O)[C@@H](C)CC [GADD45β69–86] (H-IALQIHFTLIQSFCCDND-NH2),koff,[1],0.0013 s⁻¹
same,kon,[1],315 M⁻¹ s⁻¹
"CN[C@H](CC(=O)O)C(=O)O [NMDA, N-methyl-D-aspartate, reference compound]",increase of MKK7 phosphorylation,[2]; 5 min,1.7 fold
same,increase of MKK7 phosphorylation,[2]; 30 min,1.5 fold
same,increase of MKK7 phosphorylation,[2]; 60 min,1.9 fold
TAT-spacer-GADD45β60–86: cell-permeable MKK7 inhibitor peptide with spacer between TAT and GADD45β residues 60–86,inhibition of neuronal death induced by OGD (LDH),[3],95%
same,"neuronal death (LDH), intrinsic toxicity",12 DIV cortical neurons,did not induce neuronal death
same,reduction of P-MKK7/MKK7 ratio,[4]; 3 h after ischemia,54%
same,reduction of P-MKK7/MKK7 ratio,[4]; 6 h after ischemia,33%
same,reduction of infarct volume (abstract),"[5]; 1 week after MCAo, administration time not given",49%
same,"infarct volume, in words","[5]; 12-h post-ischemic injection, not shown",did not significantly decrease the infarct volume
same,percentage of ischemic volume on the whole rat brain,"[5]; 30 min before lesion, 24 h after lesion, mean±s.d., n=6, control 13.72±4.07% (n=5), P<0.01",7.85±2.03%
same,reduction of infarcted volume,"[5]; ICV (2 μl of 11 μg/μl; legend: 11 mg/kg) 30 min before lesion, 24 h after lesion, P<0.01",43%
same,reduction of infarct volume,"[5]; injected 6 h post ischemia, 1 week after MCAo",44%
same,reduction of infarct volume (Conclusions),"[5]; injected 6 h post ischemia, 1 week after lesion",49%
same,percentage of ischemic volume,"[5]; injected 6 h post lesion, 1 week after MCAo, mean±S.D., n=5, P<0.01",6.95±0.93%
same,percentage of ischemic volume on the whole rat brain,"[5]; injected 6 h post lesion, 24 h after lesion, mean±S.D., n=5, P<0.01",8.04±1.04%
same,reduction of infarct volume,"[5]; pre-ischemic (30 min before) administration, 1 week after MCAo",~50%
same,percentage of ischemic volume,"[5]; pre-ischemic (30 min before) administration, 1 week after MCAo, mean±S.D., n=5, control 12.42±2.22% (n=5), P<0.01",6.22±0.98%
B1,Kd,[6],3.71 µM
B2,"effect on MKK4 activity, in words",MKK4,no effect
same,"binding to MKK7, in words",MKK7,binds tightly to MKK7
same,"inhibition of MKK7 enzymatic activity, in words",MKK7,inhibits its enzymatic activity
same,"effect on MKK3/6 activity, in words",MKK3/6,no effect
same,"effect on MEK1/2 activity, in words",MEK1/2,no effect
